≈ marks a conversion by molar mass, not a printed value.
How the values were obtained:
Assay type in all cases: cell-based
[1] = tested on: E. coli BW25113; experiment: MIC, microdilution in 96-well plates; details: Escherichia coli, BW25113, B: E. coli BW25113; read-out: MIC
Procedure, shortened: (§1)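 Growth inhibition was scored after overnight culture (16-18 hours, 37° C., shaking) by looking for turbidity; the first clear well in a triplicate 2-fold compound series defined the MIC. Strains were inoculated at 1:10000 into LB.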

[2] = tested on: Edwardsiella tarda; experiment: MIC, microdilution in 96-well plates; details: D: Edwardsiella tarda
Procedure, shortened: as §1

[3] = tested on: Klebsiella pneumoniae subsp. pneumoniae; experiment: MIC, 20-strain panel; details: E: Klebsiella pneumoniae subsp. pneumoniae
Procedure, shortened: as §1

[4] = tested on: Staphylococcus saprophyticus subsp. saprophyticus; experiment: MIC, 20-strain panel
Procedure, shortened: as §1

[5] = tested on: Streptococcus agalactiae; experiment: MIC, 20-strain panel
Procedure, shortened: as §1

[6] = tested on: Staphylococcus epidermidis; experiment: MIC, 20-strain panel
Procedure, shortened: as §1

[7] = tested on: Streptococcus pyogenes; experiment: MIC, 20-strain panel
Procedure, shortened: as §1

[8] = tested on: E. coli JW5503 (deltolC); experiment: MIC, 20-strain panel; details: Escherichia coli, C: E. coli JW5503 (deltolC)
Procedure, shortened: as §1

[9] = tested on: Shigella flexneri; experiment: MIC, 20-strain panel; details: G: Shigella flexneri
Procedure, shortened: as §1

[10] = tested on: E. coli MG1655; experiment: MIC, 20-strain panel; details: Escherichia coli, MG1655, A: E. coli MG1655; read-out: MIC
Procedure, shortened: as §1

[11] = tested on: Salmonella enterica subsp. enterica typhimurium; experiment: MIC, 20-strain panel; details: F: Salmonella enterica subsp. enterica Typhimurium
Procedure, shortened: as §1

[12] = tested on: Staphylococcus aureus subsp. aureus; experiment: MIC, 20-strain panel; details: H: Staphylococcus aureus subsp. aureus, read-out: MIC
Procedure, shortened: as §1

| Compound | MIC [1] | MIC [2] | MIC [3] | MIC [4] | MIC [5] | MIC [6] | MIC [7] | MIC [8] | MIC [9] | MIC [10] | MIC [11] | MIC [12] |
| --- | --- | --- | --- | --- | --- | --- | --- | --- | --- | --- | --- | --- |
| O=S(=O)(N[C@@H]1CCN(Cc2ccc(OC(F)F)cc2)C1)c1cccc(OC(F)(F)F)c1 [Compound 106] | > 8 µg/mL | > 8 µg/mL | > 8 µg/mL | > 8 µg/mL | > 8 µg/mL | > 8 µg/mL | > 8 µg/mL | > 8 µg/mL | > 8 µg/mL | > 8 µg/mL | > 8 µg/mL | > 8 µg/mL |
| O=S(=O)(N[C@@H]1CCN(Cc2nc(-c3ccccc3)cs2)C1)c1cccc(OC(F)(F)F)c1 [Compound 107] | > 8 µg/mL | > 8 µg/mL | > 8 µg/mL | > 8 µg/mL | > 8 µg/mL | > 8 µg/mL | > 8 µg/mL | > 8 µg/mL | > 8 µg/mL | > 8 µg/mL | > 8 µg/mL | > 8 µg/mL |
| O=S(=O)(N[C@@H]1CCN(Cc2cn(-c3ccccc3)nn2)C1)c1cccc(C(F)(F)F)c1 [Compound 108] | > 8 µg/mL | > 8 µg/mL | > 8 µg/mL | > 8 µg/mL | > 8 µg/mL | > 8 µg/mL | > 8 µg/mL | > 8 µg/mL | > 8 µg/mL | > 8 µg/mL | > 8 µg/mL | > 8 µg/mL |
| N#Cc1cccc(S(=O)(=O)N[C@@H]2CCN(Cc3ccc(OC4CCC4)cc3)C2)c1 [Compound 109] | > 8 µg/mL | > 8 µg/mL | > 8 µg/mL | > 8 µg/mL | > 8 µg/mL | > 8 µg/mL | > 8 µg/mL | 0.5 µg/mL (≈ 1.21 µM) | > 8 µg/mL | > 8 µg/mL | 8 µg/mL (≈ 19.4 µM) | > 8 µg/mL |
| O=S(=O)(N[C@@H]1CCN(Cc2ccc(-c3ccccc3)cc2)C1)c1cc(Cl)cc(C(F)(F)F)c1 [Compound 110] | > 8 µg/mL | > 8 µg/mL | > 8 µg/mL | > 8 µg/mL | > 8 µg/mL | 4 µg/mL (≈ 8.08 µM) | 8 µg/mL (≈ 16.2 µM) | > 8 µg/mL | > 8 µg/mL | > 8 µg/mL | > 8 µg/mL | > 8 µg/mL |
| O=S(=O)(N[C@@H]1CCN(Cc2ccc(-c3ccccc3)cc2)C1)c1cnc2ccsc2c1 [Compound 111] | > 8 µg/mL | > 8 µg/mL | > 8 µg/mL | > 8 µg/mL | > 8 µg/mL | > 8 µg/mL | > 8 µg/mL | > 8 µg/mL | > 8 µg/mL | > 8 µg/mL | > 8 µg/mL | > 8 µg/mL |
| Cc1ccc(C#N)cc1S(=O)(=O)N[C@@H]1CCN(Cc2ccc(OC(C)C)cc2)C1 [Compound 112] | > 8 µg/mL | > 8 µg/mL | > 8 µg/mL | > 8 µg/mL | > 8 µg/mL | > 8 µg/mL | > 8 µg/mL | 0.25 µg/mL (≈ 0.605 µM) | > 8 µg/mL | > 8 µg/mL | 4 µg/mL (≈ 9.67 µM) | > 8 µg/mL |
| O=S(=O)(N[C@@H]1CCN(Cc2ccc(-c3ccccc3)cc2)C1)c1cc(C(F)(F)F)ccc1F [Compound 114] | > 8 µg/mL | > 8 µg/mL | > 8 µg/mL | > 8 µg/mL | > 8 µg/mL | ~8 µg/mL (≈ 16.7 µM) | ~8 µg/mL (≈ 16.7 µM) | 1 µg/mL (≈ 2.09 µM) | > 8 µg/mL | > 8 µg/mL | 4 µg/mL (≈ 8.36 µM) | > 8 µg/mL |
| Cc1nn(C)c2ncc(S(=O)(=O)N[C@@H]3CCN(Cc4ccc(-c5ccccc5)cc4)C3)cc12 [Compound 115] | > 8 µg/mL | > 8 µg/mL | > 8 µg/mL | > 8 µg/mL | > 8 µg/mL | > 8 µg/mL | > 8 µg/mL | > 8 µg/mL | > 8 µg/mL | > 8 µg/mL | > 8 µg/mL | > 8 µg/mL |
| CC(C)Oc1c(Cl)cc(CN2CC[C@@H](NS(=O)(=O)c3cccc(C#N)c3)C2)cc1Cl [Compound 116] | > 8 µg/mL | > 8 µg/mL | > 8 µg/mL | > 8 µg/mL | > 8 µg/mL | > 8 µg/mL | > 8 µg/mL | > 8 µg/mL | > 8 µg/mL | > 8 µg/mL | > 8 µg/mL | > 8 µg/mL |
| CC(C)Oc1c(Cl)cc(CN2CC[C@@H](NS(=O)(=O)c3cccc(OC(F)(F)F)c3)C2)cc1Cl [Compound 117] | > 8 µg/mL | > 8 µg/mL | > 8 µg/mL | > 8 µg/mL | > 8 µg/mL | > 8 µg/mL | > 8 µg/mL | > 8 µg/mL | > 8 µg/mL | > 8 µg/mL | > 8 µg/mL | > 8 µg/mL |
| CC(C)Oc1ccc(CN2CC[C@@H](NS(=O)(=O)c3ccc(Cl)c(C#N)c3)C2)cc1 [Compound 118] | > 8 µg/mL | > 8 µg/mL | > 8 µg/mL | > 8 µg/mL | > 8 µg/mL | > 8 µg/mL | > 8 µg/mL | > 8 µg/mL | > 8 µg/mL | > 8 µg/mL | > 8 µg/mL | > 8 µg/mL |
| N#Cc1cc(S(=O)(=O)N[C@@H]2CCN(Cc3ccc(OC4CC4)cc3)C2)ccc1Cl [Compound 119] | > 8 µg/mL | > 8 µg/mL | > 8 µg/mL | > 8 µg/mL | > 8 µg/mL | > 8 µg/mL | > 8 µg/mL | > 8 µg/mL | > 8 µg/mL | > 8 µg/mL | > 8 µg/mL | > 8 µg/mL |
| N#Cc1cc(S(=O)(=O)N[C@@H]2CCN(Cc3ccc(-c4ccccc4)cc3)C2)ccc1Cl [Compound 120] | > 8 µg/mL | > 8 µg/mL | > 8 µg/mL | > 8 µg/mL | > 8 µg/mL | > 8 µg/mL | > 8 µg/mL | ~8 µg/mL (≈ 17.7 µM) | > 8 µg/mL | > 8 µg/mL | > 8 µg/mL | > 8 µg/mL |
| Cc1ccncc1S(=O)(=O)N[C@@H]1CCN(Cc2ccc(OC(C)C)cc2)C1 [Compound 121] | > 8 µg/mL | > 8 µg/mL | > 8 µg/mL | > 8 µg/mL | > 8 µg/mL | > 8 µg/mL | > 8 µg/mL | ~8 µg/mL (≈ 20.5 µM) | > 8 µg/mL | > 8 µg/mL | > 8 µg/mL | > 8 µg/mL |
| O=S(=O)(N[C@@H]1CCN(Cc2ccc(-c3ccccc3)cc2)C1)c1cnccc1Cl [Compound 122] | > 8 µg/mL | > 8 µg/mL | > 8 µg/mL | > 8 µg/mL | > 8 µg/mL | ~8 µg/mL (≈ 18.7 µM) | > 8 µg/mL | 4 µg/mL (≈ 9.35 µM) | > 8 µg/mL | > 8 µg/mL | > 8 µg/mL | > 8 µg/mL |
| Cc1nn(C)c2ncc(S(=O)(=O)N[C@@H]3CCN(Cc4ccc(OC(C)C)cc4)C3)cc12 [Compound 123] | > 8 µg/mL | > 8 µg/mL | > 8 µg/mL | > 8 µg/mL | > 8 µg/mL | > 8 µg/mL | > 8 µg/mL | > 8 µg/mL | > 8 µg/mL | > 8 µg/mL | > 8 µg/mL | > 8 µg/mL |
| N#Cc1cccc(S(=O)(=O)N[C@@H]2CCN(Cc3cn(-c4ccccc4)nn3)C2)c1 [Compound 124] | > 8 µg/mL | > 8 µg/mL | > 8 µg/mL | > 8 µg/mL | > 8 µg/mL | > 8 µg/mL | > 8 µg/mL | > 8 µg/mL | > 8 µg/mL | > 8 µg/mL | > 8 µg/mL | > 8 µg/mL |
| O=S(=O)(N[C@@H]1CCN(Cc2ccn(-c3ccccc3)n2)C1)c1cccc(C(F)(F)F)c1 [Compound 125] | > 8 µg/mL | > 8 µg/mL | > 8 µg/mL | > 8 µg/mL | > 8 µg/mL | > 8 µg/mL | > 8 µg/mL | > 8 µg/mL | > 8 µg/mL | > 8 µg/mL | > 8 µg/mL | > 8 µg/mL |
| N#Cc1cccc(S(=O)(=O)N[C@@H]2CCN(Cc3ccn(-c4ccccc4)n3)C2)c1 [Compound 126] | > 8 µg/mL | > 8 µg/mL | > 8 µg/mL | > 8 µg/mL | > 8 µg/mL | > 8 µg/mL | > 8 µg/mL | > 8 µg/mL | > 8 µg/mL | > 8 µg/mL | > 8 µg/mL | > 8 µg/mL |
| COc1ccccc1-c1ccc(CN2CC[C@@H](NS(=O)(=O)c3cccc(C#N)c3)C2)cc1 [Compound 127] | > 8 µg/mL | > 8 µg/mL | > 8 µg/mL | > 8 µg/mL | > 8 µg/mL | > 8 µg/mL | > 8 µg/mL | 4 µg/mL (≈ 8.94 µM) | > 8 µg/mL | > 8 µg/mL | > 8 µg/mL | > 8 µg/mL |
| O=S(=O)(N[C@@H]1CCN(Cc2ccc(OC3CC3)cc2)C1)c1cc(C(F)(F)F)cc(C(F)(F)F)c1 [Compound 128] | > 8 µg/mL | > 8 µg/mL | > 8 µg/mL | > 8 µg/mL | > 8 µg/mL | > 8 µg/mL | > 8 µg/mL | 8 µg/mL (≈ 15.7 µM) | > 8 µg/mL | > 8 µg/mL | > 8 µg/mL | > 8 µg/mL |

Source: patent publication US10253039B2, “Inhibitors of bacterial DNA gyrase with efficacy against gram-negative bacteria” (priority 2014, dated 2019)
